Columns and labels:
Assay type in all cases: cell-based
Settings in all cases: compounds at 50 nM and 500 nM, 24 hours
[1] = target: T1, IKZF2 (Homo sapiens, UniProt Q96SW2+Q9UKS7); assay: Western-blot assay, substrate protein degradation in hPBMCs: IKZF2
T1 construct: effects of the compounds of the present disclosure on the expression of target proteins in cells; endogenous in cells; host or cells: human PBMCs (hPBMCs)

[2] = target: T2, IKZF3 (Homo sapiens, UniProt Q96SW2+Q9UKT9); assay: Western-blot assay, substrate protein degradation in hPBMCs: IKZF3
T2 construct: effects of the compounds of the present disclosure on the expression of target proteins in cells; endogenous in cells; host or cells: human PBMCs (hPBMCs)
T2 sequence (Q9UKT9 whole entry): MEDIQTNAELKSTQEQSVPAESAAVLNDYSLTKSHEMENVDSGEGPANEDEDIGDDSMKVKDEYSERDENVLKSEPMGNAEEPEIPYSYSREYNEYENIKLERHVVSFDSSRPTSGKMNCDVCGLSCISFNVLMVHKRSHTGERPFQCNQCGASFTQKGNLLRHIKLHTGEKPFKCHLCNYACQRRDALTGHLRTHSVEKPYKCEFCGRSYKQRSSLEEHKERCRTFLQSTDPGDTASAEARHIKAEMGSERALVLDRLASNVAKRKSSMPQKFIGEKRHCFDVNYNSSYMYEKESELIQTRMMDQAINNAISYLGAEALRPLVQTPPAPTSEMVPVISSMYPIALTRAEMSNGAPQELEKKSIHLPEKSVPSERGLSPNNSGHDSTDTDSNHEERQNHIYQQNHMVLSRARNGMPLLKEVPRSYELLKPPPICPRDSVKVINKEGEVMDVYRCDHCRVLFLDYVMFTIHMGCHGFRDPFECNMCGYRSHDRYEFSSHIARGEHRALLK
T2 sequence (Q96SW2 whole entry): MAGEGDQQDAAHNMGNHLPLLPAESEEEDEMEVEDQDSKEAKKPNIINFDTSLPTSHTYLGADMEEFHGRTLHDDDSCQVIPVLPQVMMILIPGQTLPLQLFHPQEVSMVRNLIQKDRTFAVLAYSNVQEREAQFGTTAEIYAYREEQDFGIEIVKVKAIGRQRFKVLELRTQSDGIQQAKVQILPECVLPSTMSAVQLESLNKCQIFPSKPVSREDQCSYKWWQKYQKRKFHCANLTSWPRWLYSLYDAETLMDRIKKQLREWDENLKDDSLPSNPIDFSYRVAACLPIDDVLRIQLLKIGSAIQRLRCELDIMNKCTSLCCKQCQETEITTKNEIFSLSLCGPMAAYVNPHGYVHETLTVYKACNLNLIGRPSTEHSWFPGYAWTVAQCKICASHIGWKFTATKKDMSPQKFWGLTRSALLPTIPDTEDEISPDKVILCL
T2 sequence (Q16531 whole entry partner): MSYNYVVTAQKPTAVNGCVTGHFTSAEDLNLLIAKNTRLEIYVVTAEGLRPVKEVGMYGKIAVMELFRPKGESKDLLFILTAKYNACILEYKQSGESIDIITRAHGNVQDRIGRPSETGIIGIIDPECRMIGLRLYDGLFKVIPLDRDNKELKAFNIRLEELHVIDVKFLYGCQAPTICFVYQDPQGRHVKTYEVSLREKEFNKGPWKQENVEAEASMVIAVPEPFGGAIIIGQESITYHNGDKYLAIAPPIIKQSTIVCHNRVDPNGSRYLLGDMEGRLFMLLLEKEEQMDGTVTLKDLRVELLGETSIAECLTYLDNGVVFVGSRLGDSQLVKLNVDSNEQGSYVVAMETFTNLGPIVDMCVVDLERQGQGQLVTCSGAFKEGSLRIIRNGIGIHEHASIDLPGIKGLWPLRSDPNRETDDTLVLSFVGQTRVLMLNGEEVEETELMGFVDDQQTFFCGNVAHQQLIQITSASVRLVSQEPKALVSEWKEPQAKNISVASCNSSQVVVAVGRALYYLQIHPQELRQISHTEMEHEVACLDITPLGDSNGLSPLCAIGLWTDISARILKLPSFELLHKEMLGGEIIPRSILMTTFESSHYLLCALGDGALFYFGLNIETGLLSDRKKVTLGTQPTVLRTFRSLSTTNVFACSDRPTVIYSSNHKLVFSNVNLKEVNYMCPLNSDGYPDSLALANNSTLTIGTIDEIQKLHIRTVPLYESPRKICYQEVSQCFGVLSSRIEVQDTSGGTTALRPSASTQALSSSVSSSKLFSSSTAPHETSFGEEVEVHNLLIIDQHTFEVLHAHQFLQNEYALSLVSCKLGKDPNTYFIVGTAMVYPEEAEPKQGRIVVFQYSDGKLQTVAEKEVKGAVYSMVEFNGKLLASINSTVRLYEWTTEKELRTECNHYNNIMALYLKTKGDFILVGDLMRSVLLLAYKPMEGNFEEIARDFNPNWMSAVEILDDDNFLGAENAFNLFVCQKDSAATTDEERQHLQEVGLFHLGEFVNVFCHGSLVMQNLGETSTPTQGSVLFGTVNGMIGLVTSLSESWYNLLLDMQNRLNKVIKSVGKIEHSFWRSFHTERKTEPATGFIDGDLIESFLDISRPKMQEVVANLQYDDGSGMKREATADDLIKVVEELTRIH

[3] = target: T3, CK1α (Homo sapiens, UniProt P48729+Q96SW2); assay: Western-blot assay, substrate protein degradation in hPBMCs: CK1α
T3 construct: effects of the compounds of the present disclosure on the expression of target proteins in cells; endogenous in cells; host or cells: human PBMCs (hPBMCs)
T3 sequence (P48729 whole entry): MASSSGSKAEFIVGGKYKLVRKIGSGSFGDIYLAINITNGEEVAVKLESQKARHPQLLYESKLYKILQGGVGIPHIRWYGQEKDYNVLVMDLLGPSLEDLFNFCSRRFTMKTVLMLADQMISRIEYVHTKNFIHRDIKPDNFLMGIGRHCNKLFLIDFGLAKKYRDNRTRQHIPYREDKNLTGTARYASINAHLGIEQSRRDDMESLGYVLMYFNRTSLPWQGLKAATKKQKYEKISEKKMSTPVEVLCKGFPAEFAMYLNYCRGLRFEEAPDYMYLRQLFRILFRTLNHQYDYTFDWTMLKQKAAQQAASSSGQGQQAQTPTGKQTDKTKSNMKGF
T3 sequence (Q96SW2 whole entry): as the sequence (Q96SW2 whole entry) above
T3 sequence (Q16531 whole entry partner): as the sequence (Q16531 whole entry partner) above

[4] = target: T4, GSPT1 (Homo sapiens, UniProt P15170+Q96SW2); assay: Western-blot assay, substrate protein degradation in hPBMCs: GSPT1
T4 construct: effects of the compounds of the present disclosure on the expression of target proteins in cells; endogenous in cells; host or cells: human PBMCs (hPBMCs)
T4 sequence (P15170 whole entry): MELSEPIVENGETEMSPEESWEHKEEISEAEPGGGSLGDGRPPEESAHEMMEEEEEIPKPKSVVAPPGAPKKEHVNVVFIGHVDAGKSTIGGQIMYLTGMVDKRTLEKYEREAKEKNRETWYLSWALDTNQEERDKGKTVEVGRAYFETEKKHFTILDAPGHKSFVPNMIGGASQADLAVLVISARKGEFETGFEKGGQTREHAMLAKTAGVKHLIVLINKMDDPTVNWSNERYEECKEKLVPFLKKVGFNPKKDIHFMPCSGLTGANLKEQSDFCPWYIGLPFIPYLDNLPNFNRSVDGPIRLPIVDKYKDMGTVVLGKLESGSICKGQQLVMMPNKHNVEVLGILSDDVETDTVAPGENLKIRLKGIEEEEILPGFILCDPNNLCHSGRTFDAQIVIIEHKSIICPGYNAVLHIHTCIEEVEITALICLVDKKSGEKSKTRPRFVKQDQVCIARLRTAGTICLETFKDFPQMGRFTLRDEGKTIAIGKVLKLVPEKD
T4 sequence (Q96SW2 whole entry): as the sequence (Q96SW2 whole entry) above
T4 sequence (Q16531 whole entry partner): as the sequence (Q16531 whole entry partner) above

[5] = target: T5, IKZF1 (Homo sapiens, UniProt Q13422+Q96SW2); assay: Western-blot assay, substrate protein degradation in hPBMCs: IKZF1
T5 construct: effects of the compounds of the present disclosure on the expression of target proteins in cells; endogenous in cells; host or cells: human PBMCs (hPBMCs)
T5 sequence (Q13422 whole entry): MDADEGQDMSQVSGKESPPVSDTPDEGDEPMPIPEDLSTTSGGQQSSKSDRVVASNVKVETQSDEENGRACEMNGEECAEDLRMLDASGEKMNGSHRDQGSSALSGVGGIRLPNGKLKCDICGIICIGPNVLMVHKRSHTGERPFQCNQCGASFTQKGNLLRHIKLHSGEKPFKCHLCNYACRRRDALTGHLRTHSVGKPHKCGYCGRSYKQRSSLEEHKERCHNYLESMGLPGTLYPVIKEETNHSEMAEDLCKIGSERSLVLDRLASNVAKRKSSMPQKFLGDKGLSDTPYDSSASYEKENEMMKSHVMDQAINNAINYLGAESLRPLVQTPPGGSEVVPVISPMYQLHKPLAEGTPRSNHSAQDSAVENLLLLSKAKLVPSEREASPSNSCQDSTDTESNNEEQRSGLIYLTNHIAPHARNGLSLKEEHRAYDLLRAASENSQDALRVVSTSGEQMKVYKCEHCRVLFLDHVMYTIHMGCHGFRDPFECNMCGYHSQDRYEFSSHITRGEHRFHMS
T5 sequence (Q96SW2 whole entry): as the sequence (Q96SW2 whole entry) above
T5 sequence (Q16531 whole entry partner): as the sequence (Q16531 whole entry partner) above

[6] = target: T6, WEE1 (Homo sapiens, UniProt P30291+Q96SW2); assay: Western-blot assay, substrate protein degradation in hPBMCs: WEE1
T6 construct: effects of the compounds of the present disclosure on the expression of target proteins in cells; endogenous in cells; host or cells: human PBMCs (hPBMCs)

T1 sequence (Q9UKS7 whole entry): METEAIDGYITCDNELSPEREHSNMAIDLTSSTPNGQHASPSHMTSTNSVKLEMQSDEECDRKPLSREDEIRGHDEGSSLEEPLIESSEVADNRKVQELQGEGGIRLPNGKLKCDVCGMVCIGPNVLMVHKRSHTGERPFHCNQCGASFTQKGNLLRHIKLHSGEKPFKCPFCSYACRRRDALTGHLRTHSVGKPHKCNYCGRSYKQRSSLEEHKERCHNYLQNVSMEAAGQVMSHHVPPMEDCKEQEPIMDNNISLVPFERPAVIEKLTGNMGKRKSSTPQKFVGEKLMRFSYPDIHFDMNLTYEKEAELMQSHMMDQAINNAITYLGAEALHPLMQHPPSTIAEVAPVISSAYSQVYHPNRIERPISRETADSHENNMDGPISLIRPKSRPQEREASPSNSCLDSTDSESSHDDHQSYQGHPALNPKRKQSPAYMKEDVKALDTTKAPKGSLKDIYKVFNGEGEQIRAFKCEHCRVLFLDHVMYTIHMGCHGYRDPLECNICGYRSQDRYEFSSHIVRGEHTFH
T1 sequence (Q96SW2 whole entry): as the sequence (Q96SW2 whole entry) above
T1 sequence (Q16531 whole entry partner): as the sequence (Q16531 whole entry partner) above

Row | SMILES | IKZF2 substrate protein remaining % [1] | IKZF3 substrate protein remaining % [2] | CK1α substrate protein remaining % [3] | GSPT1 substrate protein remaining % [4] | IKZF1 substrate protein remaining % [5] | WEE1 substrate protein remaining % [6]
1 | O=C1CCN(N2Cc3cc(CN4CCN(c5cc(F)ccc5F)CC4)ccc3C2=O)C(=O)N1 [GT-06779, 1-(5-((4-(2,5-difluorophenyl)piperazin-1-yl)methyl)-1-oxoisoindolin-2-yl)dihydropyrimidine-2,4(1H,3H)-dione] | B ("B" is defined as 80%< substrate protein remaining %≤ 100%) | B ("B" is defined as 80%< substrate protein remaining %≤ 100%) | A ("A" is defined as 0% ≤ substrate protein remaining % ≤ 80%) | B ("B" is defined as 80%< substrate protein remaining %≤ 100%) | B ("B" is defined as 80%< substrate protein remaining %≤ 100%) | B ("B" is defined as 80%< substrate protein remaining %≤ 100%)
2 | O=C1CCN(N2Cc3cc(CN4CCN(c5c(F)cccc5F)CC4)ccc3C2=O)C(=O)N1 [GT-06780, 1-(5-((4-(2,6-difluorophenyl)piperazin-1-yl)methyl)-1-oxoisoindolin-2-yl)dihydropyrimidine-2,4(1H,3H)-dione] | B ("B" is defined as 80%< substrate protein remaining %≤ 100%) | B ("B" is defined as 80%< substrate protein remaining %≤ 100%) | A ("A" is defined as 0% ≤ substrate protein remaining % ≤ 80%) | B ("B" is defined as 80%< substrate protein remaining %≤ 100%) | B ("B" is defined as 80%< substrate protein remaining %≤ 100%) | B ("B" is defined as 80%< substrate protein remaining %≤ 100%)
3 | O=C1CCN(N2Cc3cc(CN4CCN(c5ccc(F)c(F)c5)CC4)ccc3C2=O)C(=O)N1 [GT-06781, 1-(5-((4-(3,4-difluorophenyl)piperazin-1-yl)methyl)-1-oxoisoindolin-2-yl)dihydropyrimidine-2,4(1H,3H)-dione] | B ("B" is defined as 80%< substrate protein remaining %≤ 100%) | B ("B" is defined as 80%< substrate protein remaining %≤ 100%) | A ("A" is defined as 0% ≤ substrate protein remaining % ≤ 80%) | A ("A" is defined as 0% ≤ substrate protein remaining % ≤ 80%) | B ("B" is defined as 80%< substrate protein remaining %≤ 100%) | B ("B" is defined as 80%< substrate protein remaining %≤ 100%)
4 | O=C1CCN(N2Cc3cc(CN4CCN(c5cc(F)cc(F)c5)CC4)ccc3C2=O)C(=O)N1 [GT-06782, 1-(5-((4-(3,5-difluorophenyl)piperazin-1-yl)methyl)-1-oxoisoindolin-2-yl)dihydropyrimidine-2,4(1H,3H)-dione] | B ("B" is defined as 80%< substrate protein remaining %≤ 100%) | B ("B" is defined as 80%< substrate protein remaining %≤ 100%) | A ("A" is defined as 0% ≤ substrate protein remaining % ≤ 80%) | A ("A" is defined as 0% ≤ substrate protein remaining % ≤ 80%) | B ("B" is defined as 80%< substrate protein remaining %≤ 100%) | B ("B" is defined as 80%< substrate protein remaining %≤ 100%)
5 | O=C1CCN(N2C(=O)c3ccc(CN4CCN(c5ccc(Cl)cc5)CC4)cc3C2=O)C(=O)N1 [GT-06783, 5-((4-(4-chlorophenyl)piperazin-1-yl)methyl)-2-(2,4-dioxotetrahydropyrimidin-1(2H)-yl)isoindoline-1,3-dione] | B ("B" is defined as 80%< substrate protein remaining %≤ 100%) | A ("A" is defined as 0% ≤ substrate protein remaining % ≤ 80%) | B ("B" is defined as 80%< substrate protein remaining %≤ 100%) | B ("B" is defined as 80%< substrate protein remaining %≤ 100%) | B ("B" is defined as 80%< substrate protein remaining %≤ 100%) | B ("B" is defined as 80%< substrate protein remaining %≤ 100%)
6 | O=C1CCN(N2C(=O)c3ccc(CN4CCN(c5ccc(Br)cc5)CC4)cc3C2=O)C(=O)N1 [GT-06784, 5-((4-(4-bromophenyl)piperazin-1-yl)methyl)-2-(2,4-dioxotetrahydropyrimidin-1(2H)-yl)isoindoline-1,3-dione] | B ("B" is defined as 80%< substrate protein remaining %≤ 100%) | B ("B" is defined as 80%< substrate protein remaining %≤ 100%) | A ("A" is defined as 0% ≤ substrate protein remaining % ≤ 80%) | B ("B" is defined as 80%< substrate protein remaining %≤ 100%) | B ("B" is defined as 80%< substrate protein remaining %≤ 100%) | B ("B" is defined as 80%< substrate protein remaining %≤ 100%)
7 | O=C1CCN(N2C(=O)c3ccc(CN4CCN(c5cccc(F)c5F)CC4)cc3C2=O)C(=O)N1 [GT-06793, 5-((4-(2,3-difluorophenyl)piperazin-1-yl)methyl)-2-(2,4-dioxotetrahydropyrimidin-1(2H)-yl)isoindoline-1,3-dione] | A ("A" is defined as 0% ≤ substrate protein remaining % ≤ 80%) | B ("B" is defined as 80%< substrate protein remaining %≤ 100%) | B ("B" is defined as 80%< substrate protein remaining %≤ 100%) | B ("B" is defined as 80%< substrate protein remaining %≤ 100%) | B ("B" is defined as 80%< substrate protein remaining %≤ 100%) | B ("B" is defined as 80%< substrate protein remaining %≤ 100%)
8 | O=C1CCN(N2C(=O)c3ccc(CN4CCN(c5c(F)cccc5F)CC4)cc3C2=O)C(=O)N1 [GT-06796, 5-((4-(2,6-difluorophenyl)piperazin-1-yl)methyl)-2-(2,4-dioxotetrahydropyrimidin-1(2H)-yl)isoindoline-1,3-dione] | B ("B" is defined as 80%< substrate protein remaining %≤ 100%) | B ("B" is defined as 80%< substrate protein remaining %≤ 100%) | B ("B" is defined as 80%< substrate protein remaining %≤ 100%) | B ("B" is defined as 80%< substrate protein remaining %≤ 100%) | B ("B" is defined as 80%< substrate protein remaining %≤ 100%) | A ("A" is defined as 0% ≤ substrate protein remaining % ≤ 80%)
9 | O=C1CCN(N2C(=O)c3ccc(CN4CCN(c5ccc(F)c(F)c5)CC4)cc3C2=O)C(=O)N1 [GT-06797, 5-((4-(3,4-difluorophenyl)piperazin-1-yl)methyl)-2-(2,4-dioxotetrahydropyrimidin-1(2H)-yl)isoindoline-1,3-dione] | B ("B" is defined as 80%< substrate protein remaining %≤ 100%) | B ("B" is defined as 80%< substrate protein remaining %≤ 100%) | B ("B" is defined as 80%< substrate protein remaining %≤ 100%) | B ("B" is defined as 80%< substrate protein remaining %≤ 100%) | B ("B" is defined as 80%< substrate protein remaining %≤ 100%) | A ("A" is defined as 0% ≤ substrate protein remaining % ≤ 80%)

Reference: patent EP4722207A1, “OXOISOINDOLINYL-SUBSTITUTED TETRAHYDROPYRIMIDINEDIONE DERIVATIVE AND USE THEREOF” (Gluetacs Therapeutics (Shanghai) Co., Ltd., priority 2023, dated 2024)
